# Laboratory results: US20250034116A1, “1,4-DIHETEROCYCLIC SUBSTITUTED AROMATIC RING OR AROMATIC HETEROCYCLIC COMPOUND AND USE THEREOF” (BeBetter Med Inc., priority 2022, published 2025)
# How the values were obtained:
# [1] = tested on: CYP enzymes in human liver microsomes (HLM); test: Inhibition of 20-HETE production in human liver microsomes (HLM); type: biochemical
# Method in brief: (§1)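 Liver microsomes (human or mouse) or recombinant CYP4F2 or CYP4A11 in potassium phosphate buffer mixed with compound, then with 400 μM substrate solution (stock). After 10 min preincubation at 37 °C, reaction started with 6 mM NADPH solution (stock) and run 25 min at 37 °C. 20-HETE formation quantified by LC-MS/MS; IC50 from a four-parameter Hill fit, with percent inhibition also reported at 1000, 500 or 100 nM.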
# [2] = tested on: CYP enzymes in rat liver microsomes (RLM); test: Inhibition of 20-HETE production in rat liver microsomes (RLM); type: biochemical
# Method in brief: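 Test compounds were dissolved in DMSO, diluted in acetonitrile/DMSO (3:1), and 2 μl was mixed with 100 μl potassium phosphate buffer containing rat liver microsomes in a 96-well plate. Duplicate 30 μl aliquots received 15 μl of 400 μM substrate, were preheated at 37° C. for 10 minutes, then started with 15 μl of 6 mM NADPH for 25 minutes. LC-MS/MS measured 20-HETE formation.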
# [3] = tested on: CYP enzymes in mouse liver microsomes (MLM); test: Inhibition of 20-HETE production in mouse liver microsomes (MLM); type: biochemical
# Method in brief: as §1
# [4] = target: recombinant CYP4F2 (rCYP4F2) (Homo sapiens (Human), UniProt P78329); test: Inhibition of 20-HETE production by recombinant CYP4F2; type: biochemical
# Method in brief: as §1
# [5] = target: recombinant CYP4A11 (rCYP4A11) (Homo sapiens (Human), UniProt Q02928); test: Inhibition of 20-HETE production by recombinant CYP4A11; type: biochemical
# Method in brief: as §1
# [6] = Pharmacokinetic (PK) experiment, oral administration in rats; type: in vivo, Male SD rats; conditions: 20 mg/kg
# Method in brief: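 Fasted male SD rats (180-250 g) received 20 mg/kg orally in 30% sulfobutylether-β-cyclodextrin. Tail-vein blood sampled 15 min to 24 h post-dose into K2-EDTA; plasma protein-precipitated with acetonitrile containing internal standard and analysed by LC-MS/MS.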
# [7] = tested on: diet-induced obesity (DIO) mouse model; test: Experiment 4: weight loss of compound 2 compared with semaglutide in DIO mouse model; type: in vivo, Male C57BL/6J mice
# From the text: Experiment 4 was to compare the weight loss effects of compound 2 with that of semaglutide in a diet-induced obesity (DIO) mouse model. Male C57BL/6J mice were purchased from Vital River Laboratories (Shanghai) Co., Ltd. and housed in a barrier system animal facility. Animals were randomly divided into 4 groups: normal control group, DIO model control group, compound 2 treatment group, and semaglutide treatment group, with 6 animals per group. The model control group and treatment groups were first fed with high-fat diet (HFD) for 18 weeks, after which the treatment groups were administered with compound 2 or semaglutide, respectively. Compound 2 was administered orally at a dose of 30 mg/kg once daily for 14 consecutive weeks, while semaglutide was administered subcutaneously at a dose of 30 nmol/kg once daily. After 7 weeks of semaglutide treatment, the semaglutide treatment group was switched to compound 2 treatment for another 7 weeks.
# [8] = tested on: 20-HETE; test: Experiment 5: level of 20-HETE in DIO mouse model; type: in vivo, Male C57BL/6J mice; conditions: DIO mice, single oral dose 50 mg/kg, 8 hours; most pronounced in the liver and kidneys
# Procedure: (§2) Experiment 5 was to investigate the effect of compound 2 on regulating the level of 20-HETE in a diet-induced obesity (DIO) mouse model. Male C57BL/6J mice were purchased from Guangdong Vital River Laboratory Animal Technology Co., Ltd. and housed in a barrier system animal facility. After 24 weeks of high-fat diet (HFD) induction, compound 2 was administered at a dose of 50 mg/kg once, and samples were collected after 8 hours to detect the level of 20-HETE. A solvent control group was also set up simultaneously, with 3 animals per group.
# [9] = tested on: 20-HETE; test: Experiment 6: level of 20-HETE in DIO rat model; type: in vivo, Male SD rats; conditions: DIO rats, single oral dose 25 mg/kg, 8 hours; most pronounced in the kidneys
# Procedure: as §2, with “6” for “5”, “rat” for “mouse”, “SD rats” for “C57BL/6J mice”, “14” for “24”, “25” for “50”
# Sequence of recombinant CYP4F2 (rCYP4F2) (P78329 5-520): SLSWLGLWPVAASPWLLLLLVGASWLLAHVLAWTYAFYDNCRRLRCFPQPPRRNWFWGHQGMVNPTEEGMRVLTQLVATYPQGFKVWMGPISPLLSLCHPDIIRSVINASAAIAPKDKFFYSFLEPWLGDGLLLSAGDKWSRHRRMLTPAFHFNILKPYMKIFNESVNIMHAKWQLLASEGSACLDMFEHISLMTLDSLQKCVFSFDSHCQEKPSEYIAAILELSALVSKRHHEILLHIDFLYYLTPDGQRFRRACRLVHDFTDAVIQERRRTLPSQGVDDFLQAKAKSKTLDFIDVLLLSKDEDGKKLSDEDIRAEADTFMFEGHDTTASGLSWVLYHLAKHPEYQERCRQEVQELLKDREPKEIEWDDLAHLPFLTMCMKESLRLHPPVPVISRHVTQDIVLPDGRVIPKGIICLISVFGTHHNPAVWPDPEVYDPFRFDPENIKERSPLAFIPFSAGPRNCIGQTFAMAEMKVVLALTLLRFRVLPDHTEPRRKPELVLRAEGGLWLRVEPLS
# Sequence of recombinant CYP4A11 (rCYP4A11) (Q02928 5-519): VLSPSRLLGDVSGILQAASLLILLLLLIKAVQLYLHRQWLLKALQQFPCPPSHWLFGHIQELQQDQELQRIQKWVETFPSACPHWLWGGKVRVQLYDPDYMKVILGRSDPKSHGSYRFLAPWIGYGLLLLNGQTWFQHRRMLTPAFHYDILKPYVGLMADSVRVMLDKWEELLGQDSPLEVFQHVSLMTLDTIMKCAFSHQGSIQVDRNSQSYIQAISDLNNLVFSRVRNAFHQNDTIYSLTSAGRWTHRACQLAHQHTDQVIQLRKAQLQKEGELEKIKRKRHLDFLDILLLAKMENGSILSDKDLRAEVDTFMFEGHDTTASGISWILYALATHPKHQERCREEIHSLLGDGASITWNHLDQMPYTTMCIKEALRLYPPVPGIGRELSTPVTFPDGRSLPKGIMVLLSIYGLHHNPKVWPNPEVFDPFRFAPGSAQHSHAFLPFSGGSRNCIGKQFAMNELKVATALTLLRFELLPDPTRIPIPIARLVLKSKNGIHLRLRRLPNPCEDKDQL
smiles,measurement,setting,value
"O=C1CCCN1CC1CCN(c2ccc(-c3cn[nH]c3)cc2F)CC1 [Compound 2, 1-((1-(2-fluoro-4-(1H-pyrazol-4-yl)phenyl)piperidin-4-yl)methyl)pyrrolidin-2-one]",IC50,[1],28.7 nM
same,HLM (% inh @ 500 nM),[1]; 500 nM,79.50%
same,IC50,[2],103 nM
same,RLM (% inh @ 500 nM),[2]; 500 nM,59.38%
same,IC50,[3],1340 nM
same,IC50,[4],15.8 nM
same,IC50,[5],33.2 nM
same,absorption and blood exposure after oral administration (in words),[6],well absorbed and exhibit high blood exposure
same,AUC(0-inf),"[6]; male, SD, rat, plasma",120 µg·h/mL
same,Cmax,"[6]; male, SD, rat, plasma",10100 ng/mL
same,Tmax,"[6]; male, SD, rat, plasma",3.33 h
same,half-life,"[6]; male, SD, rat, plasma",5.2 h
same,AUC(0-t),"[6]; male, SD, rat, plasma, read-out: AUC0-24",115 µg·h/mL
same,"maximum weight loss effect, decrease compared to pre-administration weight","[7]; 30 mg/kg orally once daily, after 6 weeks",approximately 36%
same,food intake,"[7]; 30 mg/kg orally once daily, returned to control level in the 6th week",slightly decreased
same,"body weight decrease, of pre-administration weight","[7]; 7 weeks semaglutide, then switched to compound 2 for 7 weeks",33.6%
same,weight loss effect compared with semaglutide,[7]; DIO mouse model,greater weight loss effect than semaglutide
same,"20-HETE levels in the liver, kidneys, and brain tissues compared to the solvent control group",[8],varying degrees of decrease
same,"20-HETE levels in the liver, kidneys, and brain tissues compared to the solvent control group",[9],varying degrees of decrease
